This is an account of results in US7435822B2, “3-(diheteroarylmethylene)-8-azabicyclo[3.2.1]octane and 3-((aryl)(heteroaryl)methylene)-8-azabicyclo[3.2.1]octane derivatives” (Janssen Pharmaceutica N.V., priority 2004, dated 2008).

Read-outs that look alike come from different tables or passages of the source.

The target in one assay is T1, δ-opioid receptor (Rattus norvegicus, UniProt P33533).
T1 construct: the forebrains are homogenized in Tris buffer in a Teflon®-glass homogenizer; from tissue; host or cells: rat (male Wistar) forebrain, particulate membrane preparation
The experiment in a line: Rat brain δ-opioid receptor binding assay. Particulars: for μ/δ (ratio of the μ-opioid receptor binding to the δ-opioid receptor binding): ratio of Ki μ to Ki δ, rat brain. The protocol:
Rat Brain δ-Opioid Receptor Binding Assay
Male, Wistar rats (150-250 g, VAF, Charles River, Kingston, N.Y.) are killed by cervical dislocation, and their brains removed and placed immediately in ice cold Tris HCl buffer (50 mM, pH 7.4). The forebrains are separated from the remainder of the brain by a coronal transection, beginning dorsally at the colliculi and passing ventrally through the midbrain-pontine junction. After dissection, the forebrains are homogenized in Tris buffer in a Teflon®-glass homogenizer. The homogenate is diluted to a concentration of 1 g of forebrain tissue per 100 mL Tris buffer and centrifuged at 39,000×G for 10 min. The pellet is resuspended in the same volume of Tris buffer with several brief pulses from a Polytron homogenizer. This particulate preparation is used for the δ-opioid binding assays. […] The tubes and filters are rinsed three times with 4 mL of 10 mM HEPES (pH 7.4), and the radioactivity associated with the filter circles determined using Formula 989 scintillation fluid (New England Nuclear, Boston, Mass.) in a scintillation counter.
(§1) The data are used to calculate either the % inhibition compared to control binding (when only a single concentration of test compound is evaluated) or a Ki value (when a range of concentrations is tested).
% Inhibition was calculated as follows: […]
Ki value is calculated using the LIGAND (Munson, P. J. and Rodbard, D., Anal. Biochem. 107: 220-239,1980) data analysis program.

For the next assay, the target named is T2, μ-opioid receptor (Rattus norvegicus, UniProt P33535).
T2 construct: the forebrains are homogenized in Tris buffer in a Teflon®-glass homogenizer; from tissue; host or cells: rat (male Wistar) forebrain, particulate membrane preparation
The experiment in a line: Rat brain μ-opioid receptor binding assay. The procedure:
Rat Brain μ-Opioid Receptor Binding Assay
Male, Wistar rats (150-250 g, VAF, Charles River, Kingston, N.Y.) are killed by cervical dislocation and their brains removed and placed immediately in ice cold Tris HCl buffer (50 mM, pH 7.4). The forebrains are separated from the remainder of the brain by a coronal transection, beginning dorsally at the colliculi and passing ventrally through the midbrain-pontine junction. After dissection, the forebrains are homogenized in Tris buffer in a Teflon®-glass homogenizer. The homogenate is diluted to a concentration of 1 g of forebrain tissue per 100 mL Tris buffer and centrifuged at 39,000×G for 10 min. The pellet is resuspended in the same volume of Tris buffer with several brief pulses from a Polytron homogenizer. This particulate preparation is used for the μ-opioid binding assays.
as §1
% Inhibition is calculated as follows: […]

Where [1] appears, read: rat forebrain particulate preparation, [3H]DAMGO, 25° C., read-out: Ki (nM) μ.
The mark [2] stands for this setting: rat forebrain particulate preparation, [3H]DPDPE, 25° C., read-out: Ki (nM) δ.

T1 sequence (P33533 whole entry): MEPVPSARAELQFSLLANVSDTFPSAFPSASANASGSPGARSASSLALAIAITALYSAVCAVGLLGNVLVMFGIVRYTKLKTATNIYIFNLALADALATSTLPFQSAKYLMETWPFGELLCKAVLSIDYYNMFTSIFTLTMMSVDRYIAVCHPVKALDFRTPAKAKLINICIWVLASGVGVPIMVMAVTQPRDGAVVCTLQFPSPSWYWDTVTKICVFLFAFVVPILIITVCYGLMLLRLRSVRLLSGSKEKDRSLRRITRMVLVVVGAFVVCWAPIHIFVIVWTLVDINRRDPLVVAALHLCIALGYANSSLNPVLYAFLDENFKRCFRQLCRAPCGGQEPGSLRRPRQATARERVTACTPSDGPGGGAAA
T2 sequence (P33535 whole entry): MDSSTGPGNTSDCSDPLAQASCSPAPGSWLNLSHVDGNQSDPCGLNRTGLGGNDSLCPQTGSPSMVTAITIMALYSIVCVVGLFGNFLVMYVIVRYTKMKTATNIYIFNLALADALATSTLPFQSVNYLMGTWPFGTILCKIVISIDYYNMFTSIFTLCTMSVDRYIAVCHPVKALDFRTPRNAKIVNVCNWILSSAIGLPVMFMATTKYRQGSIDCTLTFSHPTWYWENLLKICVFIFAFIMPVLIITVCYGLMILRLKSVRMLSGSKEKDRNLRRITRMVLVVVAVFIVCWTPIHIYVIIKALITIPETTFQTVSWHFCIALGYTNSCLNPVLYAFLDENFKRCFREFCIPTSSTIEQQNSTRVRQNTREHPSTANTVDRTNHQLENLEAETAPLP

The Ki is the equilibrium dissociation constant of an inhibitor or competing ligand from its target. With `Oc1cccc(C(=C2CC3CCC(C2)N3)c2ccsc2)c1` [Example 20, 3-[(8-Aza-bicyclo[3.2.1]oct-3-ylidene)-thiophen-3-yl-methyl]-phenol], on δ-opioid receptor, the inhibitory constant (Ki) was 6.27 nM and the “μ/δ (ratio of the μ-opioid receptor binding to the δ-opioid receptor binding)” value worked out at 3.93. The compound also returned a Ki at μ-opioid receptor of 24.7 nM.
In the same order, the values of `Oc1ccc(C(=C2CC3CCC(C2)N3Cc2ccccc2Cl)c2ccsc2)cc1` [Example 41, 4-{[8-(2-Chloro-benzyl)-8-aza-bicyclo[3.2.1]oct-3-ylidene]-thiophen-3-yl-methyl}phenol] are 12.5 nM, 2.91 and 36.5 nM.
For `Cc1ccccc1CN1C2CCC1CC(=C(c1ccc(O)cc1)c1ccsc1)C2` [Example 40, 4-{[8-(2-Methyl-benzyl)-8-aza-bicyclo[3.2.1]oct-3-ylidene]-thiophen-3-yl-methyl}-phenol] the same measures were 35.7 nM, 1.82 and 64.8 nM.
For `Cc1ccccc1CN1C2CCC1CC(=C(c1ccsc1)c1cccc(O)c1)C2` [Example 24] the same measures were 5.96 nM, 8.15 and 48.6 nM.
As to `CC(C)=CCN1C2CCC1CC(=C(c1ccccc1)c1ccsc1)C2` [Example 3, 8-(3-Methyl-but-2-enyl)-3-(phenyl-thiophen-3-yl-methylene)-8-aza-bicyclo[3.2.1]octane], at δ-opioid receptor, the inhibitory constant (Ki) is 21.1 nM and the “μ/δ (ratio of the μ-opioid receptor binding to the δ-opioid receptor binding)” value is 8.37. The Ki on μ-opioid receptor (setting [1]) was found to be 177 nM.
For the compound `C=CCN1C2CCC1CC(=C(c1ccsc1)c1cccc(O)c1)C2` [Example 22, 3-[(8-Allyl-8-aza-bicyclo[3.2.1]oct-3-ylidene)-thiophen-3-yl-methyl]-phenol], at δ-opioid receptor, the Ki was 1.69 nM and the “μ/δ (ratio of the μ-opioid receptor binding to the δ-opioid receptor binding)” value was determined as 15.6. Further, on μ-opioid receptor, the Ki was 26 nM.
In the same order, the values of `Cc1ccc(CN2C3CCC2CC(=C(c2ccc(O)cc2)c2ccsc2)C3)s1` [Example 44, 4-{[8-(5-Methyl-thiophen-2-ylmethyl)-8-aza-bicyclo[3.2.1]oct-3-ylidene]-thiophen-3-yl-methyl}-phenol] are 9.04 nM, 8.33 and 75.2 nM.
`CC(C)=CCN1C2CCC1CC(=C(c1ccsc1)c1cccc(O)c1)C2` [Example 21, 3-{[8-(3-Methyl-but-2-enyl)-8-aza-bicyclo[3.2.1]oct-3-ylidene]-thiophen-3-yl-methyl}-phenol]: the figures for the Ki on δ-opioid receptor and on μ-opioid receptor were 0.91 nM and 7.1 nM, respectively. The “μ/δ (ratio of the μ-opioid receptor binding to the δ-opioid receptor binding)” value on δ-opioid receptor is reported as 7.8.
At δ-opioid receptor, `Cc1ccsc1CN1C2CCC1CC(=C(c1ccccc1)c1ccsc1)C2` [Example 8, 8-(3-Methyl-thiophen-2-ylmethyl)-3-(phenyl-thiophen-3-yl-methylene)-8-aza-bicyclo[3.2.1]octane] gave an inhibitory constant (Ki) of 38.3 nM.
`Clc1ccccc1CN1C2CCC1CC(=C(c1ccccc1)c1ccsc1)C2` [Example 6, 8-(2-Chloro-benzyl)-3-(phenyl-thiophen-3-yl-methylene)-8-aza-bicyclo[3.2.1]octane]: the Ki on δ-opioid receptor (setting [2]) was determined as 229 nM; at μ-opioid receptor (setting [1]), 1310 nM.
Take `Cc1ccsc1CN1C2CCC1CC(=C(c1ccsc1)c1cccc(O)c1)C2` [Example 27, 3-{[8-(3-Methyl-thiophen-2-ylmethyl)-8-aza-bicyclo[3.2.1]oct-3-ylidene]-thiophen-3-yl-methyl}-phenol]: at δ-opioid receptor, the inhibition constant Ki is 5.85 nM and the “μ/δ (ratio of the μ-opioid receptor binding to the δ-opioid receptor binding)” value is recorded as 5.20. Besides, on μ-opioid receptor, the inhibitory constant (Ki) was determined as 30.4 nM.
Turning to `Oc1cccc(C(=C2CC3CCC(C2)N3CCc2ccccc2)c2ccsc2)c1` [Example 23, 3-[(8-Phenethyl-8-aza-bicyclo[3.2.1]oct-3-ylidene)-thiophen-3-yl-methyl]-phenol], the Ki on δ-opioid receptor (setting [2]) stood at 437 nM; on μ-opioid receptor, 37 nM.
On to `Cc1ccc(CN2C3CCC2CC(=C(c2ccccc2)c2ccsc2)C3)s1` [Example 9, 8-(5-Methyl-thiophen-2-ylmethyl)-3-(phenyl-thiophen-3-yl-methylene)-8-aza-bicyclo[3.2.1]octane], for which the figures for the Ki on δ-opioid receptor and at μ-opioid receptor (setting [1]) were 38.8 nM and 413 nM, respectively. Also, the “μ/δ (ratio of the μ-opioid receptor binding to the δ-opioid receptor binding)” value on δ-opioid receptor is reported as 10.66.
`Oc1cccc(C(=C2CC3CCC(C2)N3Cc2cccs2)c2ccsc2)c1` [Example 26, 3-[Thiophen-3-yl-(8-thiophen-2-ylmethyl-8-aza-bicyclo[3.2.1]oct-3-ylidene)-methyl]-phenol]: the Ki on δ-opioid receptor was determined as 0.17 nM; on μ-opioid receptor, 5.4 nM. Also, the “μ/δ (ratio of the μ-opioid receptor binding to the δ-opioid receptor binding)” value on δ-opioid receptor is 31.78.
For `Cc1ccc(CN2C3CCC2CC(=C(c2ccsc2)c2cccc(O)c2)C3)s1` [Example 28, 3-{[8-(5-Methyl-thiophen-2-ylmethyl)-8-aza-bicyclo[3.2.1]oct-3-ylidene]-thiophen-3-yl-methyl}-phenol] the same measures were 1.65 nM, 12.6 nM and 7.65.
In the case of `c1ccc(CCN2C3CCC2CC(=C(c2ccccc2)c2ccsc2)C3)cc1` [Example 4, 8-Phenethyl-3-(phenyl-thiophen-3-yl-methylene)-8-aza-bicyclo[3.2.1]octane], the figures for the Ki at δ-opioid receptor (setting [2]) and at μ-opioid receptor (setting [1]) were 903 nM and 265 nM, respectively. Further, the “μ/δ (ratio of the μ-opioid receptor binding to the δ-opioid receptor binding)” value at δ-opioid receptor worked out at 0.29.
On to `CC(C)=CCN1C2CCC1CC(=C(c1ccc(O)cc1)c1ccsc1)C2` [Example 38, 4-{[8-(3-Methyl-but-2-enyl)-8-aza-bicyclo[3.2.1]oct-3-ylidene]-thiophen-3-yl-methyl}-phenol], for which, at δ-opioid receptor, the Ki is 5.37 nM and the “μ/δ (ratio of the μ-opioid receptor binding to the δ-opioid receptor binding)” value was found to be 17.3. On μ-opioid receptor, this compound came in with an inhibition constant (Ki) of 93 nM.
In the case of `c1ccc(C(=C2CC3CCC(C2)N3Cc2cccs2)c2ccsc2)cc1` [Example 7, 3-(Phenyl-thiophen-3-yl-methylene)-8-thiophen-2-ylmethyl-8-aza-bicyclo[3.2.1]octane], on δ-opioid receptor, the affinity corresponds to a Ki of 62.6 nM and the “μ/δ (ratio of the μ-opioid receptor binding to the δ-opioid receptor binding)” value was found to be 6.69. For the same compound, the Ki on μ-opioid receptor (setting [1]) worked out at 418 nM.
Regarding `Oc1ccc(C(=C2CC3CCC(C2)N3Cc2cccs2)c2ccsc2)cc1` [Example 42, 4-[Thiophen-3-yl-(8-thiophen-2-ylmethyl-8-aza-bicyclo[3.2.1]oct-3-ylidene) -methyl]phenol], on δ-opioid receptor, the Ki came out at 2.92 nM and the “μ/δ (ratio of the μ-opioid receptor binding to the δ-opioid receptor binding)” value is listed as 30.54. The compound also returned a Ki at μ-opioid receptor of 89.2 nM.
With `c1ccc(C(=C2CC3CCC(C2)N3)c2ccsc2)cc1` [Example 2, 3-(Phenyl-thiophen-3-yl-methylene)-8-aza-bicyclo[3.2.1]octane], at δ-opioid receptor, the Ki came to 68 nM.
As for `Oc1ccc(C(=C2CC3CCC(C2)N3CCc2ccccc2)c2ccsc2)cc1` [Example 39], the Ki at δ-opioid receptor is 397 nM; at μ-opioid receptor, 166 nM. Further, the “μ/δ (ratio of the μ-opioid receptor binding to the δ-opioid receptor binding)” value at δ-opioid receptor stood at 0.42.
Consider `Cc1ccccc1CN1C2CCC1CC(=C(c1ccccc1)c1ccsc1)C2` [Example 5, 8-(2-Methyl-benzyl)-3-(phenyl-thiophen-3-yl-methylene)-8-aza-bicyclo[3.2.1]octane], for which the Ki at δ-opioid receptor (setting [2]) is 193 nM; at μ-opioid receptor (setting [1]), 4110 nM. Further, at δ-opioid receptor, the “μ/δ (ratio of the μ-opioid receptor binding to the δ-opioid receptor binding)” value is 21.28.
`Oc1cccc(C(=C2CC3CCC(C2)N3Cc2ccccc2Cl)c2ccsc2)c1` [Example 25, 3-{[8-(2-Chloro-benzyl)-8-aza-bicyclo[3.2.1]oct-3-ylidene]-thiophen-3-yl-methyl}-phenol]: the Ki on δ-opioid receptor stood at 1.69 nM; at μ-opioid receptor, 34.2 nM. On δ-opioid receptor, the “μ/δ (ratio of the μ-opioid receptor binding to the δ-opioid receptor binding)” value worked out at 20.22.
As for `Cc1ccsc1CN1C2CCC1CC(=C(c1ccc(O)cc1)c1ccsc1)C2` [Example 43, 4-{[8-(3-Methyl-thiophen-2-ylmethyl)-8-aza-bicyclo[3.2.1]oct-3-ylidene]-thiophen-3-yl-methyl}-phenol], on δ-opioid receptor, the Ki turned out to be 31.4 nM and the “μ/δ (ratio of the μ-opioid receptor binding to the δ-opioid receptor binding)” value is 5.94. Further, the Ki on μ-opioid receptor (setting [1]) was 187 nM.
